Experimental findings from US20110301125A1, “Method for Treating Macular Degeneration” (SANOFI-AVENTIS, priority 2008, published 2011) are described below.

In experiment [1] the test system is rat laser induced macular degeneration model (choroidal neovascularization). Briefly: Example 1: rat laser-induced choroidal neovascularization, histopathology of CNV plaque thickness (first set of study). It counts as in vivo, Brown Norway rats (Rattus norvegicus). An excerpt: Fifty male Brown Norway (strain BN/RijHsd) rats (Rattus norvegicus), 4-7 weeks old (50-124 g each), were purchased from Harlan (Indianapolis, Ind.), received in good condition. The animals were quarantined and acclimated for three (3) days. […] 50 animals were arbitrarily assigned to study groups and given permanent identification numbers.
The retinae (both eyes of each rat) were lased using a retinal lasering device with an attached Kowa PortSlit, SC14; Keeler Fison Indirect Ophthalmoscope (Lens 30 Diopter). Rats were briefly anesthetized and the eyes were dilated and coverslips were used as necessary to flatten the cornea. Each retina was lased with 186 mW, 75 μm spot sizes, 0.1 sec duration, applied to (approximately) 9-, 12- and 3-o'clock positions, 2-3 disk diameters from the optic nerve of each eye as feasible as determined by the surgeon. Rupture of the Bruch's membrane was identified by bubble formation, which occurred immediately at the site of photocoagulation. Rats were briefly anesthetized and administered fluoroscein to visualize the retinal vasculature post surgically and prior to necropsy. Representative photographs of the retinas were taken using a Kowa retinal camera for rodents. The photographs were taken to assure that vascular lesions were present immediately following the laser procedure and immediately prior to necropsy.
2-[4-(7-ethyl-5H-pyrrolo[2,3-b]pyrazin-6-yl)-phenyl]-propan-2-ol A and 2-(3-fluoro-phenyl)-4-methyl-pyrimidine-5-carboxylic acid indol-1-ylamide were formulated in vehicle twice weekly during the study. Vehicle consisted of 0.5% methylcellulose, 0.2% Tween 20 in sterile water for injection, and was formulated once weekly. 2-(3-fluoro-phenyl)-4-methyl-pyrimidine-5-carboxylic acid indol-1-ylamide test article was reconstituted in vehicle at 0.6, 2, and 6 mg/mL; 2-(3-fluoro-phenyl)-4-methyl-pyrimidine-5-carboxylic acid indol-1-ylamide control article was reconstituted at 2 mg/mL. All solutions were stored refrigerated at 2-8° C. between dose administrations, and mixed prior to each dose administration.
Animals were dosed via twice daily oral gavage at 5 mL/kg, starting immediately prior to lasing and continuing for 14 days. Dose volumes were recalculated weekly based on the most recent body weight. Note that animals were lased on two sequential days, but were sacrificed together on a single day to facilitate handling during necropsy. Therefore, animals of the first cohort (Groups 1-3) received an extra (29th) dose on the morning of Day 14 to permit terminal bleed and sacrifice within 2-4 hr of final dose administration.
The fundus was photographed on Day 0, at the time of lasing or shortly thereafter, and on Day 13 or 14, prior to sacrifice. At each time point, retinal vasculature was illuminated by intravenous (IV) injection of each animal, several minutes before photography, with 0.1 mL of a 10% solution of fluorescein dye. Each eye was dilated with a mydriatic and photographed with Kowa Small Animal Fundus Camera. The purpose of the fundus photography was to confirm the presence lesions following lasing and prior to necropsy. Any animal found not to have lesions would be removed from study and replaced.
Following fundus photography and terminal bleeds, animals were sacrificed per SOPs. […]
The slides were evaluated visually, qualitatively and semi-quantitatively. The nuclei of new vessels growing on the retinal were counted. […]

The test system of experiment [2] is rat laser-induced macular degeneration model (choroidal neovascularization). Briefly: Example 3: DP antagonist, plaque volume of choroidal neovascularization in rat laser-induced macular degeneration model. As to conditions: oral, twice each day on days -1 to 14; CNV volumes measured on day 14; FIG. 4. It counts as in vivo, brown Norway rats (Rattus norvegicus). From the text: FIG. 4 is a histogram of the results of an analysis of the effect of DP antagonist 2-(3-{6-[2-(2,4-dichloro-phenyl)-ethylamino]-2-methoxy-pyrimidin-4-yl}-phenyl)-2-methyl-propionic acid phosphoric acid salt (“Compound V” for purposes of this figure) on the plaque volume of choroidal neovascularization in the rat laser-induced macular degeneration model. Indomethacin was used as a positive control.
In this example, the effect of DP antagonist 2-(3-{6-[2-(2,4-dichloro-phenyl)-ethylamino]-2-methoxy-pyrimidin-4-yl}-phenyl)-2-methyl-propionic acid phosphoric acid salt (the compound) on plaque volume of choroidal neovascularization in the rat laser-induced macular degeneration model. As in the Examples discussed above, brown Norway rats (Rattus norvegicus) were used in this example. The rats received laser coagulation on day 0.[…] The compound was then administered orally twice each day on days −1 to 14. Indomethacin (positive control) was similarly administered twice daily. On day 14, the rats were sacrificed and choroidal neovascular (CNV) volumes were measured on day 14.

Experiment [3] shares this test system. Kind of experiment: Example 5: hPGDS inhibitor, CNV volume by flat-mount fluorescence 3D modeling in rat laser-induced macular degeneration model. The class given is in vivo, BN rats (Rattus norvegicus; strain Brown Norway). As to conditions: oral, twice (or once) each day on days -1 to 7; CNV volumes measured on day 7; FIGS. 6A, 6B, 6C. The method, then: FIG. 6A is a histogram of the results of the effect of the hPDGS inhibitor 2-Pyridin-2-yl-pyrimidine-5-carboxylic acid 3-[5-(1-hydroxy-1-methyl-ethyl)-1,2,4-oxadiazol-3-yl]-benzylamide (“Compound VII” for purposes of this figure) against a laser-induced choroidal neovascularization in the rat: 1st dose-response study. 2-Pyridin-2-yl-pyrimidine-5-carboxylic acid 3-[5-(1-hydroxy-1-methyl-ethyl)-1,2,4-oxadiazol-3-yl]-benzylamide was administered orally twice each day on days −1 to 7. Doxycycline was used as a positive control.
FIG. 6B is a histogram of the results of the effect of the hPDGS inhibitor 2-pyridin-2-yl-pyrimidine-5-carboxylic acid 3-[5-(1-hydroxy-1-methyl-ethyl)-1,2,4-oxadiazol-3-yl]-benzylamide (“Compound VII” for purposes of this figure) against a laser-induced choroidal neovascularization in the rat: 2nd dose-response study. 2-pyridine-2-yl-pyrimidine-5-carboxylic acid 3-[5-(1-hydroxy-1-methyl-ethyl)-1,2,4-oxadiazol-3-yl]-benzylamide was administered orally twice each day on days −1 to 7. CELEBREX was used as a positive control. […]
In this example, the effect of hPGDS antagonist 2-Pyridin-2-yl-pyrimidine-5-carboxylic acid 3-[5-(1-hydroxy-1-methyl-ethyl)-1,2,4-oxadiazol-3-yl]-benzylamide was evaluated using the rat laser-induced macular degeneration model. […] Choroidal neovascular (CNV) volumes were measured on day 7. […]

For experiment [4] the test system is unchanged. Briefly: Example 4: hPGDS inhibitor, plaque volume of choroidal neovascularization in rat laser-induced macular degeneration model. It counts as in vivo, brown Norway rats. The following applies: oral, twice each day on days -1 to 14; measured after fourteen days; FIG. 5. How it is done:
FIG. 5 is a histogram of the results of an analysis of the effect of the hPDGS inhibitor 4-Methyl-2-pyridin-2-yl-pyrimidine-5-carboxylic acid (5-fluoro-3-methyl-indol-1-yl)-amide (“Compound VI” for purposes of this figure) on the plaque volume of choroidal neovascularization in the rat laser-induced macular degeneration model. Indomethacin was used as a positive control.
In this example, the same experiment was performed with the rat laser-induced macular degeneration model to determine whether the hPDGS inhibitor 4-Methyl-2-pyridin-2-yl-pyrimidine-5-carboxylic acid (5-fluoro-3-methyl-indol-1-yl)-amide could limit the plaque volume of choroidal neovascularization
In particular, the hPDGS inhibitor 4-Methyl-2-pyridin-2-yl-pyrimidine-5-carboxylic acid (5-fluoro-3-methyl-indol-1-yl)-amide (the compound) was administered orally to the rats twice each day on days −1 to day 14. On day 0, a laser was used to induce choroidal neovascularization in the eye of the brown Norway rats. Indomethacin was administered to a control group similarly, i.e., twice each day from day −1 to day 14.
After fourteen days, the rats were sacrificed and the plaque volume of choroidal neovascularization in the eye was measured.

Entries after “also recorded” stand apart in the source; their conditions may differ.

For `Cc1nc(-c2cccc(F)c2)ncc1C(=O)Nn1ccc2ccccc21` [2-(3-Fluoro-phenyl)-4-methyl-pyrimidine-5-carboxylic acid indol-1-ylamide], in experiment [1] (10 mpk, PO), the “reduction of CNV plaque thickness” value turned out to be 40.7%.
For the compound `COc1nc(NCCc2ccc(Cl)cc2Cl)cc(-c2cccc(C(C)(C)C(=O)O)c2)n1.O=P(O)(O)O` [2-(3-{6-[2-(2,4-Dichloro-phenyl)-ethylamino]-2-methoxy-pyrimidin-4-yl}-phenyl)-2-methyl-propionic Acid Phosphoric Acid Salt], the “limiting the volume of choroidal neovascularization” value in experiment [2] is “very effective”.
For `CC(C)(O)c1nc(-c2cccc(CNC(=O)c3cnc(-c4ccccn4)nc3)c2)no1` [2-Pyridin-2-yl-pyrimidine-5-carboxylic acid 3-[5-(1-hydroxy-1-methyl-ethyl)-1,2,4-oxadiazol-3-yl]-benzylamide], the “limiting CNV volume” value in experiment [3] is recorded as “effective”.
On to `CCc1c(-c2ccc(C(C)(C)O)cc2)[nH]c2nccnc12` [2-[4-(7-Ethyl-5H-pyrrolo[2,3-b]pyrazin-6-yl)-phenyl]-propan-2-ol], for which the “reduction of CNV plaque thickness” value was 11.3% in experiment [1] (3 mpk, PO); 36.6% in experiment [1] (10 mpk, PO); 32.2% in experiment [1] (30 mpk, PO).
Regarding `Cc1nc(-c2ccccn2)ncc1C(=O)Nn1cc(C)c2cc(F)ccc21` [4-Methyl-2-pyridin-2-yl-pyrimidine-5-carboxylic acid (5-fluoro-3-methyl-indol-1-yl)-amide], the “limiting the plaque volume of choroidal neovascularization” value in experiment [4] is on record as “effective; also recorded: very effective”.
As to `CC1(C)O[C@@H]2C[C@H]3[C@@H]4CCC5=CC(=O)C=C[C@]5(C)[C@@]4(F)[C@@H](O)C[C@]3(C)[C@]2(C(=O)CO)O1` [Triamcinolone Acetonide, reference compound], the “reduction of CNV plaque thickness” value in experiment [1] (positive control, intravitreal injection) came to 25.9%.
